Source: PMC6926962, “Pentafluorophenyl Platinum(II) Complexes of PTA and Its N-Allyl and N-Benzyl Derivatives: Synthesis, Characterization and Biological Activity” (Materials, 2019)
Like-named read-outs stand apart in the source and are kept apart here.

Columns and labels:
[1] = test system: HeLa (human cervix carcinoma); set-up: method as in PMID 31237306; details: nd = not detectable, read-out: Half maximal inhibitory concentration (IC50); cited from earlier work
[2] = test system: NHDF (normal human dermal fibroblasts); set-up: method as in PMID 31237306; details: nd = not detectable, read-out: Half maximal inhibitory concentration (IC50); cited from earlier work
[3] = molecular target: T1, human serum albumin (HSA) (Homo sapiens, UniProt P02768); details: under the same conditions; cited from earlier work
T1 construct: High purity free-HSA (>96%, Sigma-Aldrich, Steinheim, North Rhine-Westphalia, Germany) was used as purchased; purchased Sigma-Aldrich

[4] = test system: MCF7 (human breast adenocarcinoma); set-up: method as in PMID 31237306; details: nd = not detectable, read-out: Half maximal inhibitory concentration (IC50); cited from earlier work
[5] = test system: A549 (human lung carcinoma); set-up: method as in PMID 31237306; details: nd = not detectable, read-out: Half maximal inhibitory concentration (IC50); cited from earlier work
[6] = test system: HeLa (human cervix carcinoma); test: MTT cell viability assay, HeLa; format: cell-based; details: 72 h incubation, read-out: Half maximal inhibitory concentration (IC50)
Description: (§1) NHDF (normal human dermal fibroblasts; PromoCell, C-12302), A549 (human lung carcinoma; ATCC, No CCL-185 ^TM), HeLa (human cervix carcinoma; ATCC, No CCL-2 ^TM) and MCF7 (human breast adenocarcinoma; ATCC, No HTB-22 ^TM) were used. NHDF, A549, HeLa and MCF7 cell lines were cultured in DMEM (Lonza, Basel, Switzerland). Media were supplemented with 10% FBS (Biological Industries, Kibbutz Beit-Haemek, Israel), 4 mM L-glutamine (Biological Industries, Kibbutz Beit-Haemek, Israel), 100 U/mL of penicillin and 100 µg/mL of streptomycin (Sigma, Steinheim, North Rhine-Westphalia, Germany).
(§2) All cell cultures were inserted in a 96-well plate (Eppendorf, Freie und Hansestadt Hamburg, Germany) in a concentration of 10^5 cells per well.
(§3) Compounds 2a–c and ligands 1a–c were dissolved in distilled water and diluted to afford concentrations of 30, 3, 0.3 and 0.03 μg/mL in DMEM and incubated in standard conditions for 72 h, after which the MTT (Sigma, Steinheim, North Rhine-Westphalia, Germany) assay was carried out. 20 µL of MTT (5 mg/mL) was added to each well, incubation for 4 h at 37 °C was implemented, and then 80 µL of lysis buffer was added. The test consists in the enzymatic reduction of the tetrazolium salt MTT in metabolically active cells. The metabolite, purple-colored formazan is measured colorimetrically, using a multiwell plate reader. The optical density (OD) was measured using a spectrophotometric microplate reader (Multiscan Go, Thermo Fisher, Waltham, MA, USA) at 570 nm with reference wavelength of 630 nm. The viability of the investigated cell cultures was estimated using following formula: viability% = (average OD for test group/average OD for control group) × 100. The untreated cells were used as a control group.

[7] = test system: A549 (human lung carcinoma); test: MTT cell viability assay, A549; format: cell-based; details: A549, 72 h incubation, read-out: Half maximal inhibitory concentration (IC50)
Description: as §1, §2, §3

[8] = test system: NHDF (normal human dermal fibroblasts); test: MTT cell viability assay, NHDF; format: cell-based; details: 72 h incubation, read-out: Half maximal inhibitory concentration (IC50)
Description: as §1, §2, §3

[9] = test system: MCF7 (human breast adenocarcinoma); test: MTT cell viability assay, MCF7; format: cell-based; details: MCF7, 72 h incubation, read-out: Half maximal inhibitory concentration (IC50)
Description: as §1, §2, §3

[10] = Octanol-water partition coefficient determination; format: physicochemical; details: 24 °C, 10^−3 M in water saturated with octanol
Description: The log(P) values corresponding to the octanol–water partition coefficient was adjusted to the solubility properties of the compounds [84]. Complexes were dissolved in water previously saturated with octanol, to achieve concentrations of 10^−3 M. At 24 °C, 25 mL of octanol saturated with water was introduced into a 100 mL flask equipped and then 25 mL of the aqueous complex solutions was added. The two-phase mixture thus obtained was stirred vigorously for 20 min. After separation of the phases and removal of the respective solvents under vacuum, the attained residues were weighed. Values for log(P) of −0.11, −0.71 and −0.40 for 2a, 2b and 2c, respectively, were obtained.

Solubility in water = format: physicochemical; details: 25 °C
[11] = molecular target: T1, human serum albumin (HSA); test: HSA interaction, circular dichroism; format: binding; details: HSA/complex molar ratio 1/10; free HSA 50.88%
Description: High purity free-HSA (>96%, Sigma-Aldrich, Steinheim, North Rhine-Westphalia, Germany) was used as purchased. The stock solutions of platinum complexes (200 μM) were freshly prepared in double distilled water prior to their use. The HSA solutions (200 μM) were prepared in PBS (pH 7.40). […] Measurements were done after 24 h incubation at 300, 305 and 310 K. HSA concentration was determined, using A279 (1 mg/mL) as 0.531 [85].
Circular dichroism spectra were recorded on a Jasco J-715 spectropolarimeter, over the range of 190–250 nm in 0.1 cm cuvettes. The α-helical content of HSA was calculated from the molar ellipticity (θ) at 208–210 nm using Equations (1) and (2): (1) MRE209=ObservedCD (mdeg)/Cp·n·l·10, (2) α−helix (%)=MRE209−4000/33000−4000×100, where MRE is the mean residue ellipticity, Cp is the molar concentration of the protein, n is the number of amino acid residues (583) and l is the path-length (0.1 cm).

[12] = molecular target: T1, human serum albumin (HSA); test: HSA interaction, fluorescence quenching (Trp-214); format: binding; details: for KSV (Stern-Volmer constant): HSA 10 μM, pH 7.40; for ΔH^0 / ΔS^0: van't Hoff; for maximum blue shift of HSA fluorescence emission: HSA emission max 335 nm, λex 295 nm
Description: High purity free-HSA (>96%, Sigma-Aldrich, Steinheim, North Rhine-Westphalia, Germany) was used as purchased. The stock solutions of platinum complexes (200 μM) were freshly prepared in double distilled water prior to their use. The HSA solutions (200 μM) were prepared in PBS (pH 7.40). In the final step, the samples contained (protein):(drug) equal 1:0–1:9 in PBS, where CHSA was 10 μM. Measurements were done after 24 h incubation at 300, 305 and 310 K. HSA concentration was determined, using A279 (1 mg/mL) as 0.531 [85].
Emission fluorescence spectra were recorded using Hitachi F-2700 spectrofluorimeter (Tokio, Japan) in 1.0 cm quartz cells in the 300–400 nm range. Trp-214 fluorescence of HSA was measured at 295 nm. The intensity at 335 nm (Trp-214) was used to achieve the quenching mechanism and calculate the binding constants and thermodynamic parameters according to literature reports.

T1 sequence (P02768 25-609): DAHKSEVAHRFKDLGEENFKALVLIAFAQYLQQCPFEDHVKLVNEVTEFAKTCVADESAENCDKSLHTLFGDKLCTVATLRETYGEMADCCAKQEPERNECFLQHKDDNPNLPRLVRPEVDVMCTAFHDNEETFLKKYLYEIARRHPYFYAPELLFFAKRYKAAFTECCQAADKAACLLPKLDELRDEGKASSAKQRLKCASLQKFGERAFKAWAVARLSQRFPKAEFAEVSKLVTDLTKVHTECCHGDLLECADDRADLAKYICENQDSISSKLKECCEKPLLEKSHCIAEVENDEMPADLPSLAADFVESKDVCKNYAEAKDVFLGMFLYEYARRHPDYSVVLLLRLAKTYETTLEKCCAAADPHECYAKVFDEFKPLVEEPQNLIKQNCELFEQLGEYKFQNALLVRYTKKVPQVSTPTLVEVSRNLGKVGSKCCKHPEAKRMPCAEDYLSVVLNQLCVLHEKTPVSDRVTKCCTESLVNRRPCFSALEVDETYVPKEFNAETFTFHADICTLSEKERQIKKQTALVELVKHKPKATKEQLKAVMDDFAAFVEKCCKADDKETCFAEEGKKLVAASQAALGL

Compound	IC50 ([6]; Homo sapiens) [µM]	IC50 ([7]; Homo sapiens) [µM]	IC50 ([8]; Homo sapiens) [µM]	IC50 ([9]; Homo sapiens) [µM]	log(P) octanol-water partition coefficient [10]	solubility in H2O (S25 °C) (Solubility in water)	IC50 [6] [µM]	content of α-helix of HSA [11] [%]	IC50 [7] [µM]	IC50 [8] [µM]	IC50 [9] [µM]	KA (association constant) ([12]; 300 K) [M⁻¹]	Kq (quenching rate constant) ([12]; 300 K) [M⁻¹ s⁻¹]	n (number of binding sites) ([12]; 300 K)	ΔG^0 ([12]; 300 K) [kcal/mol]	KSV (Stern-Volmer constant) ([12]; 300 K) [M⁻¹]	ΔH^0 ([12]; 300 K) [kcal/mol]	ΔS^0 ([12]; 300 K) [J mol^−1·K^−1]	KA (association constant) ([12]; 305 K) [M⁻¹]	Kq (quenching rate constant) ([12]; 305 K) [M⁻¹ s⁻¹]	further results
N.N.[Cl][Pt][Cl] [Cisplatin, cisplatin]																					IC50 [1]: 16.6 ± 3.1 µM; IC50 [2]: 16.6 ± 2.1 µM; binding constant Ka for cisplatin-HSA complex [3]: 852 M⁻¹; IC50 [4]: 33.3 ± 4.2 µM; IC50 [5]: 33.3 ± 4.2 µM
C=CC[N+]12CN3CN(CP(C3)C1)C2 [Compound 1b, 1-allyl-1-azonia-3,5-diaza-7-phosphaadamantane]	65.8 ± 6.6	> 263	> 263	> 263																	
c1ccc(C[N+]23CN4CN(CP(C4)C2)C3)cc1 [Compound 1c, 1-benzyl-1-azonia-3,5-diaza-7-phosphaadamantane]	56 ± 16	> 224	> 224	72.4 ± 2.4																	
C=CC[N+]12CN3CN(C1)C[PH]([Pt]([Cl])([c]1c(F)c(F)c(F)c(F)c1F)[PH]14CN5CN(C[N+](CC=C)(C5)C1)C4)(C3)C2.F[B-](F)(F)F.F[B-](F)(F)F [Compound 2b, trans-(PtCl(C6F5)(APTA)2)(BF4)2]					−0.71	≈ 4.0 mg mL^−1	29.5 ± 1.3	46.29	7.79 ± 1.7	26.9 ± 3.5	> 31	9880	1.77e+12	1.26	-5.43	8850	4.02	131.4	9900	1.96e+12	n (number of binding sites) ([12]; 305 K): 0.96; ΔG^0 ([12]; 305 K): -5.57 kcal/mol; KSV (Stern-Volmer constant) ([12]; 305 K): 9780 M⁻¹; ΔH^0 ([12]; 305 K): 4.02 kcal/mol; ΔS^0 ([12]; 305 K): 131.4 J mol^−1·K^−1; KA (association constant) ([12]; 310 K): 11000 M⁻¹; Kq (quenching rate constant) ([12]; 310 K): 2.08e+12 M⁻¹ s⁻¹; n (number of binding sites) ([12]; 310 K): 1.24; KSV (Stern-Volmer constant) ([12]; 310 K): 10400 M⁻¹; maximum blue shift of HSA fluorescence emission [12]: ca. 3 nm
F[B-](F)(F)F.F[B-](F)(F)F.Fc1c(F)c(F)[c]([Pt-3]([Cl])([P+]23CN4CN(C[N+](Cc5ccccc5)(C4)C2)C3)[P+]23CN4CN(C[N+](Cc5ccccc5)(C4)C2)C3)c(F)c1F [Compound 2c, trans-(PtCl(C6F5)(BzPTA)2)(BF4)2]					−0.40	≈ 3.0 mg mL^−1	8.89 ± 4.1	47.17	> 28.1	11.2 ± 3.1	> 28.1	14500	2.72e+12	1.25	-5.71	13600	1.71	103.5	15200	2.96e+12	n (number of binding sites) ([12]; 305 K): 0.99; ΔG^0 ([12]; 305 K): -5.83 kcal/mol; KSV (Stern-Volmer constant) ([12]; 305 K): 14800 M⁻¹; ΔH^0 ([12]; 305 K): 1.71 kcal/mol; ΔS^0 ([12]; 305 K): 103.5 J mol^−1·K^−1; KA (association constant) ([12]; 310 K): 15900 M⁻¹; Kq (quenching rate constant) ([12]; 310 K): 3.24e+12 M⁻¹ s⁻¹; n (number of binding sites) ([12]; 310 K): 1.59; KSV (Stern-Volmer constant) ([12]; 310 K): 16200 M⁻¹; maximum blue shift of HSA fluorescence emission [12]: ~5 nm
trans-(PtCl(C6F5)(PTA)2) [Compound 2a]					−0.11	≈ 0.35 mg mL^−1	> 42.1		15.4 ± 5.3	26.1 ± 0.68	> 42.1										
